In the test the target is α4β1 (Homo sapiens, UniProt P05556+P13612). Kind of test: α4β1 integrin inhibition, IC50. The test is classed as binding. Particulars: read-out: α4β1 IC50.

By IC50 is commonly meant the concentration at which inhibition is half-maximal.

Sequence of α4β1 (P13612 34-1032): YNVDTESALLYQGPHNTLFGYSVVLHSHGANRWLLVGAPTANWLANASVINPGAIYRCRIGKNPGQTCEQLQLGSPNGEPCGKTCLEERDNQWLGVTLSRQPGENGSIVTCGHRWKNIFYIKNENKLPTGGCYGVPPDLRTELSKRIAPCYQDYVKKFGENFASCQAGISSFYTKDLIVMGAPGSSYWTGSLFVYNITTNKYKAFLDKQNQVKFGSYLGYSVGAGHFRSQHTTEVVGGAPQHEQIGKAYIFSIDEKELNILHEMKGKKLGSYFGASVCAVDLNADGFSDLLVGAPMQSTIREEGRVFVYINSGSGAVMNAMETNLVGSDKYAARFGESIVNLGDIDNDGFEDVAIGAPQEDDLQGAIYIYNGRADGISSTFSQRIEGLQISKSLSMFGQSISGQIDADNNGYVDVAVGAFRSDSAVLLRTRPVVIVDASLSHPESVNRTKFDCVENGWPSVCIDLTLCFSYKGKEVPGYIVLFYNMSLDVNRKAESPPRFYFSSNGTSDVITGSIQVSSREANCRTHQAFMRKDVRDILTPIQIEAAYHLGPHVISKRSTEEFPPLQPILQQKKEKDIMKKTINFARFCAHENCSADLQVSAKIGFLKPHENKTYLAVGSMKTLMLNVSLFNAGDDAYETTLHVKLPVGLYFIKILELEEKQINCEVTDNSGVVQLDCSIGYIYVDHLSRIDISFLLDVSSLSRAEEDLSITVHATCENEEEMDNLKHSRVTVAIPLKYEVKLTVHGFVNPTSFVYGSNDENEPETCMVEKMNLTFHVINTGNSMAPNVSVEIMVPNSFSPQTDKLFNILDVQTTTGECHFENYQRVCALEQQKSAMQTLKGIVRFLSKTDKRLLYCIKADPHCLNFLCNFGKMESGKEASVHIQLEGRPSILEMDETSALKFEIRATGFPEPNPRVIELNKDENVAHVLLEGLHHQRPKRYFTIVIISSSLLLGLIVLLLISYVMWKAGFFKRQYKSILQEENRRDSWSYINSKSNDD
Sequence of α4β1 (P05556 21-798): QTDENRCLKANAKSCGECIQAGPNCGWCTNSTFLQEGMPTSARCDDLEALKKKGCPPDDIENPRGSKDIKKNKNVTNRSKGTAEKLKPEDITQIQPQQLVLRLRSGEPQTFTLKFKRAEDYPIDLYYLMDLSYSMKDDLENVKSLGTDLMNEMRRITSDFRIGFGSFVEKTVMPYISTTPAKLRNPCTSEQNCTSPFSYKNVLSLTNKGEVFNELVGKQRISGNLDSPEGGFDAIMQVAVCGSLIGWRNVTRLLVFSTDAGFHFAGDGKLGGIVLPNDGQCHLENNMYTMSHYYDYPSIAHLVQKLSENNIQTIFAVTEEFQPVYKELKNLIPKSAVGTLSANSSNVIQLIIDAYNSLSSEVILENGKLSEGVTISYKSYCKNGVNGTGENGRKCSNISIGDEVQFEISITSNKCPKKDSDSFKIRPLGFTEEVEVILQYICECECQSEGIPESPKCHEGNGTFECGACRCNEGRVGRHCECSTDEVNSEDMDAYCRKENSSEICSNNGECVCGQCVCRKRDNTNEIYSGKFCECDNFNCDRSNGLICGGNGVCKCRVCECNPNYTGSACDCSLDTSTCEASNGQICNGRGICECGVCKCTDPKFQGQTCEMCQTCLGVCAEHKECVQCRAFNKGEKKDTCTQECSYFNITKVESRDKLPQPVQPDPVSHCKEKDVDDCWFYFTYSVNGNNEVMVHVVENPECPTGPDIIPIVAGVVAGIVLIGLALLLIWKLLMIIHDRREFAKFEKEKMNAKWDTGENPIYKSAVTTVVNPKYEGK

As to `COc1ccc([C@H](CC(=O)O)NC(=O)Nc2c(O)ccn(C)c2=O)cc1-c1cccc(OC(F)(F)F)c1` [1-535, sodium (S)-3-(6-methoxy-3′-(trifluoromethoxy)biphenyl-3-yl)-3-(3-(1-methyl-4-oxido-2-oxo-1,2-dihydropyridin-3-yl)ureido)propanoate], the IC50 was less than 20 nM.

As to `COc1cccc(-c2cc([C@H](CC(=O)O)NC(=O)Nc3c(O)ccn(C)c3=O)ccc2F)c1` [1-547, sodium (S)-3-(6-fluoro-3′-methoxybiphenyl-3-yl)-3-(3-(1-methyl-4-oxido-2-oxo-1,2-dihydropyridin-3-yl)ureido)propanoate], the IC50 was less than 20 nM.

In the case of `Cc1cn(C)c(=O)c(NC(=O)N[C@@H](CC(=O)O)c2cccc(-c3ccc(F)c(F)c3)c2)c1O` [1-458, sodium (S)-3-(3′,4′-difluorobiphenyl-3-yl)-3-(3-(1,5-dimethyl-4-oxido-2-oxo-1,2-di hydropyridin-3-yl)ureido)propanoate], the IC50 is less than 20 nM.

As for `Cc1ccccc1-c1cc([C@H](CC(=O)O)NC(=O)Nc2c(O)ccn(C)c2=O)ccc1F` [1-612, sodium (S)-3-(6-fluoro-2′-methylbiphenyl-3-yl)-3-(3-(1-methyl-4-oxido-2-oxo-1,2-dihydropyridin-3-yl)ureido)propanoate], the IC50 is less than 20 nM.

Regarding `O=C(O)C[C@H](NC(=O)Nc1c(O)cc[nH]c1=O)c1cccc(-c2ccc(F)cc2F)c1` [1-494, sodium (S)-3-(2′,4′-difluorobiphenyl-3-yl)-3-(3-(4-oxido-2-oxo-1,2-dihydropyridin-3-yl)ureido)propanoate], the IC50 is less than 20 nM.

Consider `Cc1cn(C)c(=O)c(NC(=O)N[C@@H](CC(=O)O)c2cccc(-c3ccc4c(c3)OCO4)c2)c1O` [1-517, sodium (S)-3-(3-(benzo[d][1,3]dioxol-5-yl)phenyl)-3-(3-(1,5-dimethyl-4-oxido-2-oxo-1,2-dihydropyridin-3-yl)ureido)propanoate], for which the IC50 is less than 20 nM.

Regarding `Cn1c2c(c(O)c(NC(=O)N[C@@H](CC(=O)O)c3cccc(-c4ccc(F)cc4F)c3)c1=O)CCC2` [1-513, sodium (S)-3-(2′,4′-difluorobiphenyl-3-yl)-3-(3-(1-methyl-4-oxido-2-oxo-2,5,6,7-tetrahydro-1H-cyclopenta[b]pyridin-3-yl)ureido)propanoate], the IC50 was less than 20 nM.

As for `Cc1cn(C)c(=O)c(NC(=O)N[C@@H](CC(=O)O)c2ccc(F)c(-c3ccccc3)c2)c1O` [1-442, sodium (S)-3-(3-(1,5-dimethyl-4-oxido-2-oxo-1,2-dihydropyridin-3-yl)ureido)-3-(6-fluorobiphenyl-3-yl)propanoate], the IC50 was less than 20 nM.

On to `Cc1cn(C)c(=O)c(NC(=O)N[C@@H](CC(=O)O)c2cccc(-c3ccc(F)cc3F)c2)c1O` [1-446, sodium (S)-3-(2′,4′-difluorobiphenyl-3-yl)-3-(3-(1,5-dimethyl-4-oxido-2-oxo-1,2-dihydropyridin-3-yl)ureido)propanoate], for which the IC50 is less than 20 nM.

Consider `Cc1noc(C)c1-c1cccc([C@H](CC(=O)O)NC(=O)Nc2c(O)cc(C)n(C)c2=O)c1` [1-609, sodium (S)-3-(3-(1,6-dimethyl-4-oxido-2-oxo-1,2-dihydropyridin-3-yl)ureido)-3-(3-(3,5-dimethylisoxazol-4-yl)phenyl)propanoate], for which the IC50 was less than 20 nM.

`Cc1ccccc1-c1ccc([C@H](CC(=O)O)NC(=O)Nc2c(O)cc(C)n(C)c2=O)cc1` [1-637, sodium (S)-3-(3-(1,6-dimethyl-4-oxido-2-oxo-1,2-dihydropyridin-3-yl)ureido)-3-(2′-methylbiphenyl-4-yl)propanoate]: the half-maximal inhibitory concentration (IC50) is less than 20 nM.

Regarding `Cc1cccc(C)c1-c1ccc(F)c([C@H](CC(=O)O)NC(=O)Nc2c(O)cc(C)n(C)c2=O)c1` [1-589, sodium (S)-3-(3-(1,6-dimethyl-4-oxido-2-oxo-1,2-dihydropyridin-3-yl)ureido)-3-(4-fluoro-2′,6′-dimethylbiphenyl-3-yl)propanoate], the concentration for half-maximal inhibition (IC50) is less than 20 nM.

`COc1cccc(-c2ccc([C@H](CC(=O)O)NC(=O)Nc3c(O)ccn(C)c3=O)s2)c1` [1-563, sodium (S)-3-(5-(3-methoxyphenyl)thiophen-2-yl)-3-(3-(1-methyl-4-oxido-2-oxo-1,2-dihydropyridin-3-yl)ureido)propanoate]: the IC50 was less than 20 nM.

Regarding `Cc1cn(C)c(=O)c(NC(=O)N[C@@H](CC(=O)O)c2cccc(-c3c(F)cccc3F)c2)c1O` [1-464, sodium (S)-3-(2′,6′-difluorobiphenyl-3-yl)-3-(3-(1,5-dimethyl-4-oxido-2-oxo-1,2-di hydropyridin-3-yl)ureido)propanoate], the half-maximal inhibitory concentration (IC50) was less than 20 nM.

With `Cc1cn(C)c(=O)c(NC(=O)N[C@@H](CC(=O)O)c2cccn2-c2ccccc2)c1O` [1-498, sodium (S)-3-(3-(1,5-dimethyl-4-oxido-2-oxo-1,2-dihydropyridin-3-yl)ureido)-3-(1-phenyl-1H-pyrrol-2-yl)propanoate], the IC50 was greater than 200 nM.

Turning to `Cc1cn(C)c(=O)c(NC(=O)N[C@@H](CC(=O)O)c2cc(-c3ccccc3)ccc2F)c1O` [1-493, sodium (S)-3-(3-(1,5-dimethyl-4-oxido-2-oxo-1,2-dihydropyridin-3-yl)ureido)-3-(4-fluorobiphenyl-3-yl)propanoate], the IC50 is less than 200 nM.

As to `Cc1cn(C)c(=O)c(NC(=O)NC(CC(=O)O)c2cccc(-c3cc(Cl)c(F)cc3F)c2)c1O` (stereo not shown) [1-503, sodium 3-(5′-chloro-2′,4′-difluorobiphenyl-3-yl)-3-(3-(1,5-dimethyl-4-oxido-2-oxo-1,2-dihydropyridin-3-yl)ureido)propanoate], the IC50 is less than 200 nM.

As for `Cn1ccc(O)c(NC(=O)N[C@@H](CC(=O)O)c2ccc(OC(F)(F)F)c(-c3ccccc3)c2)c1=O` [1-625, sodium (S)-3-(3-(1-methyl-4-oxido-2-oxo-1,2-dihydropyridin-3-yl)ureido)-3-(6-(trifluoromethoxy)biphenyl-3-yl)propanoate], the IC50 is less than 200 nM.

As to `Cc1cn(C)c(=O)c(NC(=O)NC(CC(=O)O)c2ccc(OCC(F)(F)F)c(-c3ccccc3)c2)c1O` (stereo not shown) [1-491, sodium 3-(3-(1,5-dimethyl-4-oxido-2-oxo-1,2-dihydropyridin-3-yl)ureido)-3-(6-(2,2,2-trifluoroethoxy)biphenyl-3-yl)propanoate], the IC50 is less than 200 nM.

For `COc1cccc(-c2cc(F)cc([C@H](CC(=O)O)NC(=O)Nc3c(O)cc(C)n(C)c3=O)c2)c1` [1-605, sodium (S)-3-(5-fluoro-3′-methoxybiphenyl-3-yl)-3-(3-(4-hydroxy-1,6-dimethyl-2-oxo-1,2-dihydropyridin-3-yl)ureido)propanoate], the IC50 was less than 20 nM.

For the compound `Cn1ccc(O)c(NC(=O)N[C@@H](CC(=O)O)c2cccc(-n3ccnc3)c2)c1=O` [1-539, sodium (S)-3-(3-(1H-imidazol-1-yl)phenyl)-3-(3-(1-methyl-4-oxido-2-oxo-1,2-dihydropyridin-3-yl)ureido)propanoate], the IC50 is less than 20 nM.

With `Cc1cn(C)c(=O)c(NC(=O)N[C@@H](CC(=O)O)c2cccc(-c3cc(F)cc(F)c3)c2)c1O` [1-453, sodium (S)-3-(3′,5′-difluorobiphenyl-3-yl)-3-(3-(1,5-dimethyl-4-oxido-2-oxo-1,2-di hydropyridin-3-yl)ureido)propanoate], the IC50 was less than 20 nM.

Source of the values: patent publication US10875875B2, “Propionic acid derivatives and methods of use thereof” (Aviara Pharmaceuticals, Inc., priority 2017, dated 2020).
